Reference: US11021506B2, “Thiosaccharide mucolytic agents” (The Regents of the University of California, priority 2013, dated 2021)
“Also recorded” adds a separate entry of the source.

How the values were obtained:
[1] = Rheometry: elastic modulus (G′) of pooled induced sputum from healthy subjects; parameters: species or system human; settings: for effect on elastic modulus G′ (in words): 1 mM (FIG. 1)
Method: A rheometer was employed to determine the effect of the compounds disclosed herein on the elastic modulus (G′) of sputum sample from human subjects. The terms “elastic modulus,” “G′,” and the like refer to the elastic modulus as known in the art. Inhalation of 3% saline facilitates mucus expectoration (“induced sputum”) in human subjects, including in healthy subjects without lung disease. A typical sputum induction yields 3-5 mL of sputum, and induced sputum samples can be pooled from several donors in order to provide as much as 20 mL with for any given set of experiments. The rheometer can use 1 mL per assay. Rheological measurements can be made, e.g., with a AR2000 cone-and-plate rheometer (TA Instruments), as known in the art. Patients with cystic fibrosis (CF) are able to spontaneously expectorate sputum samples. […] We typically add the test compound to induced sputum at a 10% v/v, and we calculate effect of the test compound by measuring G′ every 2 minutes for periods up to 20 minutes. Because oxidation can cause baseline drift, we keep the experiment under nitrogen to improve signal to noise ratios. We custom modified a cone and plate rheometer to permit this kind of control in our rheometry experiments. Another protocol element that we use to optimize signal to noise is the addition of protease inhibitors to CF sputum to inhibit protease digestion of mucin. As depicted in FIG. 1, the elastic modulus (G′) of pooled induced sputum from five healthy subjects was determined as a function of time in the presence of 1 mM PBS (phosphate buffered saline), NAC (N-acetylcysteine), Cmpd 1, Cmpd 29, Glc-NAc, and Gal-NAc.

[2] = Rheometry: elastic modulus (G′) of sputum from cystic fibrosis (CF) patients; parameters: species or system human; settings: for effect on G′ of CF sputum: sputum pooled from three CF patients (FIG. 3); for mucolytic effect: change in elastic modulus G′ (%-change from baseline): twelve-minute test period (FIG. 5A); for mucolytic effect on elastic modulus G′ over 12-minute test period: CF sputum n=5 donors (FIG. 7A); for mucolysis: onset and endpoint (12-minutes), change in G′: single sputum sample from a CF patient (FIG. 6)
Method: (§1) A rheometer was employed to determine the effect of the compounds disclosed herein on the elastic modulus (G′) of sputum sample from human subjects. The terms “elastic modulus,” “G′,” and the like refer to the elastic modulus as known in the art. Inhalation of 3% saline facilitates mucus expectoration (“induced sputum”) in human subjects, including in healthy subjects without lung disease. A typical sputum induction yields 3-5 mL of sputum, and induced sputum samples can be pooled from several donors in order to provide as much as 20 mL with for any given set of experiments. The rheometer can use 1 mL per assay. Rheological measurements can be made, e.g., with a AR2000 cone-and-plate rheometer (TA Instruments), as known in the art.
(§2) Patients with cystic fibrosis (CF) are able to spontaneously expectorate sputum samples. […] We typically add the test compound to induced sputum at a 10% v/v, and we calculate effect of the test compound by measuring G′ every 2 minutes for periods up to 20 minutes. Because oxidation can cause baseline drift, we keep the experiment under nitrogen to improve signal to noise ratios. We custom modified a cone and plate rheometer to permit this kind of control in our rheometry experiments. Another protocol element that we use to optimize signal to noise is the addition of protease inhibitors to CF sputum to inhibit protease digestion of mucin. […]
A series of time courses of the change in baseline G′ (%-change from baseline) of sputum samples at 10 mM concentration of MDG and Cmpds 1-5 is depicted in FIG. 6. Each datum in the figure was obtained from a single sputum sample from a patient with cystic fibrosis. […] Moreover, the length of the chain leading to the thiol is important; compare Cmpd 2 (C5 alkylene) vs. Cmpd 3 (C2 alkylene).
A time course of the change in baseline G′ (%-change from baseline) at 10 mM concentration of thiosaccharide is depicted in FIG. 7A. The drugs compared include an unmodified sugar (MDG), Glutathione (GSH, a natural endogenous reducing agent), N-acetyl cysteine (NAC), Cmpd 1 and Cmpd 2.

[3] = Rheometry: disulfide dimer study, elastic modulus (G′) of sputum (source not stated); parameters: species or system human; settings: 10 mM (FIG. 2)
Method: as §1, §2

[4] = Oxidation-reduction potential (ORP) measurement; assay type: physicochemical; settings: solutions (1 mM); for Reducing capacity (ORP): ORP probe; for reducing properties (in words): compared to parent sugar (PS) control
Method: An INLAB® Redox Micro ORP probe (Mettler Toledo) was employed, which utilizes a small platinum ring indicator electrode and a 3M KCL reference electrolyte. ORP values were determined for thiosaccharides, NAC and glutathione.

[5] = cited from earlier work
[6] = 61 mM, CF sputum n=5 donors, 12 minutes (FIG. 5C)

CO[C@H]1OC(CS)[C@H](O)C(O)C1O (stereo partly drawn) [Cmpd 1, methyl 6-deoxy-6-thio-α-D-galactopyranoside]
decrease in elastic modulus G′ ([1]; 1 mM, during the time course of the experiment (FIG. 1)): ~30%
effect on G′ of CF sputum ([2]; 10 mM): larger than the effect in healthy induced sputum
onset of action ([2]; 61 mM, CF sputum): significantly faster onset of action relative to either parent sugar MDG or NAC
average mucolytic effect at two minutes ([2]; 61 mM, CF sputum n=5 donors, 2 minutes (FIG. 5B)): significantly larger than observed for NAC; also recorded: much larger mucolytic effects than NAC
mucolytic effect at 12 minutes [2, 6]: similar
mucolytic effect: change in elastic modulus G′ (%-change from baseline) ([2]; 61 mM, CF sputum n=5 donors): decrease the elastic modulus (G′)
decrease in elastic modulus G′ of individual sputum samples from CF patients ([2]; individual samples from three CF patients (FIGS. 4A-4D)): ca. 50%
efficacy in reducing elastic modulus G′ (comparison) [3]: more effective in reducing elastic modulus G′ than either the disulfide dimer of Cmpd 1 or Cmpd 6
Reducing capacity (ORP) [4]: 99 mV
reducing properties (in words) [4]: relatively strong reducing capabilities

OCC1O[C@@H](OCCCCCS)C(O)[C@@H](O)[C@H]1O (stereo partly drawn) [Cmpd 2, 5-Thiolpentyl β-D-galactopyranoside]
mucolytic effect on elastic modulus G′ over 12-minute test period ([2]; 10 mM): largest effect
mucolytic effect at two minutes ([2]; 10 mM, CF sputum n=5 donors, 2 minutes (FIG. 7B)): much larger mucolytic effects than NAC
mucolytic effect at 12 minutes ([2]; 10 mM, CF sputum n=5 donors, 12 minutes (FIG. 7C)): significantly greater than observed for NAC; also recorded: significantly greater than for Cmpd 1; also recorded: much larger mucolytic effects than NAC; also recorded: significantly greater than that of Cmpd 1
mucolysis: onset and endpoint (12-minutes), change in G′ ([2]; 10 mM): affords a better mucolytic than mannose (Cmpd 5) or glucose (Cmpd 4)
Reducing capacity (ORP) [4]: −15 mV
reducing properties (in words) [4]: very strong reducing activity

OCC1O[C@H](OCCCCCS)C(O)[C@@H](O)[C@@H]1O (stereo partly drawn) [Cmpd 4]
mucolysis: onset and endpoint (12-minutes), change in G′ ([2]; 10 mM): a galactose moiety (i.e., Cmpd 2) affords a better mucolytic than mannose (Cmpd 5) or glucose (Cmpd 4)

OCC1O[C@@H](OCCCCCS)C(O)[C@@H](O)[C@@H]1O (stereo partly drawn) [Cmpd 5]
mucolysis: onset and endpoint (12-minutes), change in G′ ([2]; 10 mM): a galactose moiety (i.e., Cmpd 2) affords a better mucolytic than mannose (Cmpd 5) or glucose (Cmpd 4)

CO[C@H]1OC(CO)[C@H](S)[C@H](O)C1O (stereo partly drawn) [Cmpd 29]
effect on elastic modulus G′ (in words) [1]: approximately half of the decrease in G′ observed with Cmpd 1

N[C@@H](CCC(=O)N[C@@H](CS)C(=O)NCC(=O)O)C(=O)O [GSH, Glutathione]
mucolytic effect on elastic modulus G′ over 12-minute test period ([2]; 10 mM): ineffective as mucolytics
Reducing capacity (ORP) [4]: 140 mV
reducing properties (in words) [4]: did not have strong reducing properties

CO[C@H]1O[C@H](CO)[C@H](O)[C@H](O)[C@H]1O [MDG, methyl α-D-galactopyranoside, reference compound]
mucolytic effect on elastic modulus G′ over 12-minute test period ([2]; 10 mM): ineffective as mucolytics
effect on G′ of CF sputum ([2]; 10 mM): ineffective in decreasing G′ of CF sputum
mucolytic effect: change in elastic modulus G′ (%-change from baseline) ([2]; 61 mM, CF sputum n=5 donors): no mucolytic effect
Reducing capacity (ORP) [4]: 176 mV

CC(=O)N[C@@H](CS)C(=O)O [NAC, N-Acetylcysteine, reference compound]
effect on elastic modulus G′ (in words) [1]: not effective in decreasing G′
mucolytic effect on elastic modulus G′ over 12-minute test period ([2]; 10 mM): no better than control solutions
mucolytic effect at 12 minutes [2, 6]: similar
mucolytic effect: change in elastic modulus G′ (%-change from baseline) ([2]; 61 mM, CF sputum n=5 donors): decrease the elastic modulus (G′)
Reducing capacity (ORP) [4]: 121 mV
reducing properties (in words) [4]: did not have strong reducing properties
pKa [5]: 2.2
